Experimental data as given in patent US10653672B2, “Myogenesis promotor, muscle atrophy inhibitor, medical composition and TAZ activator” (National University Corporation Tokyo Medical and Dental …, priority 2014, dated 2020).
“And” between values parts separate entries of the source, which are not always exact repeats. Identical values can stand only once.

Tests used:
C2C12 cells [1] = experiment: Anti-MHC immunostaining of differentiating C2C12 cells; format: cell-based, mouse
Procedure: (2) To a culture medium in which C2C12 cells were grown to confluence under growth condition, IBS008738 or DMSO was added. The C2C12 cells were fixed immediately after the addition of IBS008738 or DMSO, and at 24 hours, 48 hours or 72 hours after the addition of IBS008738 or DMSO under differentiation condition. The fixed C2C12 cells were immunostained with anti-MHC antibody. The cell nuclei were visualized with Hoechst 33342.
(3) C2C12 cells were grown under growth condition for 24 hours in a culture medium with IBS008738 or DMSO at a concentration of 10 μM, respectively, and switched to differentiation condition to continue the cultivation. The C2C12 cells were fixed immediately after the completion of cultivation under growth condition, and at 24 hours, 48 hours and 72 hours after the switching to differentiation condition, respectively.
C2C12 cells were passaged in a growth medium (DMEM containing 10% FBS) and differentiated in a differentiation medium (DMEM containing 2% horse serum (Invitrogen)).

C2C12 cells [2] = experiment: Immunofluorescence of endogenous MyoD and TAZ in C2C12 cells; format: cell-based, mouse; settings: 10 μM
Procedure: Immunostaining of endogenous MyoD and TAZ in C2C12 cells was performed at three stages, i.e., after being cultured in a medium added with IBS008738 or DMSO at a concentration of 10 μM under growth condition for 24 hours, after being cultured under differentiation condition for 24 hours, and after being cultured under differentiation condition for 72 hours (see FIG. 7B). Both MyoD and TAZ existed at each of the three stages. After being cultured under growth condition for 24 hours, MyoD and TAZ were diffusely distributed in the nuclei (top), but formed dots under differentiation condition. After being cultured under differentiation condition for 24 hours, some cells strongly expressed TAZ, whereas other cells expressed more MyoD (middle). After being cultured under differentiation condition for 72 hours, in the single-nuclear cells, TAZ expression decreased while MyoD was still expressed. In the multi-nuclear cells, both TAZ and MyoD were expressed and colocalized in the nuclei (bottom). […] However, at 24 hours under differentiation condition, colocalization of TAZ and MyoD in the single-nuclear cells and generation of cells with two or three nuclei were promoted in the case with IBS008738 as compared with the case with DMSO (middle). […] The immunostaining and the immunofluorescence analysis were performed by the method described in Exp Cell Res 313:1484-1495. The line in the figures is 50 μm.

Balb/c ByJ mice = experiment: Suppression of dexamethasone-induced muscle atrophy; format: in vivo, mouse
Procedure: (1) A 25 mg/mL dexamethasone stock solution in DMSO was prepared. Three Balb/c ByJ mice (6 week, female) were intraperitoneally injected with 20 μL of the dexamethasone stock solution, each day for a week. As a control group, three other individuals were injected with 20 μL of DMSO. On day 9, 11 and 13, each group of the mice was injected with a solution prepared by dissolving 0.3 μL of 10 mM IBS008738 stock solution in 100 μL PBS, on one hindlimb muscle, and with 100 μL PBS on the other hindlimb muscle. The mice were sacrificed at day 14, and the muscle tissues were fixed and stained with hematoxylin and eosin (see FIG. 8D). It was observed that the muscle fibers of the mice administered with dexamethasone were shrinked.
(2) The cross section of the muscle fibers of the individual intraperitoneally injected with dexamethasone was stained with an anti-laminin antibody and observed. […] The cross-section area of muscle fibers (500 per individual) of the three mice was measured. As a result, the area of the individual injected with IBS008738 was greater than the area of the individual injected with DMSO (see FIG. 9F). The cross-section area of muscle fibers was analyzed with Image J software.

C2C12 cells [3] = experiment: Evaluation of muscle differentiation markers by immunoblotting; format: cell-based, mouse; settings: 10 μM
Procedure: (1) C2C12 cells were cultured for 24 hours under growth condition in a culture medium added with IBS008738 or DMSO at a concentration of 10 μM, and switched to differentiation condition and the cultivation was continued. The expression of markers indicating muscle differentiation was determined with a predetermined antibody, on the C2C12 cells immediately after the completion of cultivation under growth condition (0 h), 24 hours after switching to differentiation condition (24 h), 48 hours after switching to differentiation condition (48 h) and 72 hours after switching to differentiation condition (72 h), respectively. Tubulin was used as a loading control (FIG. 3A).

caveolin 3 = experiment: Quantitative real-time PCR, caveolin 3; format: cell-based, mouse; settings: C2C12 cells, 10 μM; for Normarized mRNA abundance, Caveolin3: listed as IBS008738
Procedure: (1) Quantitative real-time PCR was performed with C2C12 cells immediately before the induction of muscle formation (0 h), and after culturing under differentiation condition in a culture medium added with IBS008738 or DMSO at a concentration of 10 μM for 24 hours (24 h) and 72 hours (72 h), respectively. […] The line and error bar indicate the average value and the standard error, **p<0.05, and ns refers to not significant.
Evaluation was also performed under the same condition on M-cadherin, calpain 1 and caveolin 3, which are myofusion markers. As a result, there was no increase in the degree of gene transcription in the case with IBS008738.
The quantitative real-time PCR was performed with SYBER Green (Roche) and ABI7500 Realtime PCR system (Applied Biosystems).

For Cc1ccc(-n2cnc(/N=C/N3CCOCC3)c2C(=O)c2ccccc2)cc1 [exemplary compound 1], the “cell differentiation compared with DMSO” value (C2C12 cells [1]; 10 μM, 24 hours under growth condition, then differentiation condition up to 72 hours) was “more developed”, the “cell differentiation and MHC expression compared with DMSO” value (C2C12 cells [1]; added at confluence, fixed at 0, 24, 48 or 72 hours under differentiation condition, anti-MHC antibody) was “more significant” and the “colocalization of TAZ and MyoD in the single-nuclear cells and generation of cells with two or three nuclei” value (C2C12 cells [2]; 24 hours under differentiation condition, compared with DMSO) was “promoted”. The multinuclear cells (C2C12 cells [2]; 72 hours under differentiation condition, compared with DMSO) was “remarkably increased”, the “MyoD and TAZ immunostaining compared with DMSO” value (C2C12 cells [2]; growth condition 24 hours) was “no significant difference from the case with DMSO was not observed” and the “cross-section area of muscle fibers compared with DMSO” value (Balb/c ByJ mice; dexamethasone mice, 500 fibers per individual, three mice) was “greater”. For the same molecule, the “shrinkage of muscle fibers compared with DMSO” value (Balb/c ByJ mice; dexamethasone mice, cross section stained with anti-laminin antibody) was “more suppressed”, the “effect on muscle fibers” value (Balb/c ByJ mice; mice intraperitoneally injected with DMSO (no dexamethasone), IBS008738 into hindlimb muscle on day 9, 11 and 13, hematoxylin and eosin) was “No significant effect” and the “shrinkage of muscle fibers” value (Balb/c ByJ mice; mice intraperitoneally injected with dexamethasone, IBS008738 into hindlimb muscle on day 9, 11 and 13, hematoxylin and eosin, day 14) was “partly suppressed”. The “decrease in the expression of Pax7 compared with DMSO” value (C2C12 cells [3]) was “faster to decrease”, the “expression of MHC compared with DMSO” value (C2C12 cells [3]) was “became significant on days 3 and 4” and the “expression of TAZ” value (C2C12 cells [3]) was “became most significant on day 2”. The “expression of myogenin compared with DMSO” value (C2C12 cells [3]) was “became stronger after day 2”, the “expression of MyoD compared with DMSO” value (C2C12 cells [3]; day 1 after the addition) was “slightly higher” and the “degree of gene transcription of caveolin 3” value (caveolin 3; 24 h and 72 h) was “no increase”. For the same molecule, the “Normarized mRNA abundance, Caveolin3” value (caveolin 3; differentiation condition 24 h) was 0.14 and 0.13 and the “Normarized mRNA abundance, Caveolin3” value (caveolin 3; differentiation condition 72 h) was 2.08 and 2.47 and 2.09.
